Measured values: patent US12655116B2, “Substituted isophthalic acid diamides” (Bayer Aktiengesellschaft, priority 2020, dated 2026)

Columns and labels:
[1] = test system: ECHCG; assay: Post-emergence herbicidal action against ECHCG; assay type: in vivo, Echinochloa crus-galli; details: dosage 20 g/ha
How it was run: (§1)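 Foliar application at one-leaf stage of formulated test compounds, aqueous spray at 600–800 l/ha with 0.2% wetting agent. Greenhouse, optimal conditions, ~3 weeks; damage scored visually in % relative to untreated plants.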

[2] = test system: AVEFA; assay: Pre-emergence herbicidal action against AVEFA; assay type: in vivo, Avena fatua; details: 80 g/ha, pre-emergence
How it was run: (§2)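 Greenhouse pots of sandy loam held seeds covered with soil, onto which the compound was applied before emergence. An aqueous suspension or emulsion of WP or EC was used at 600 to 800 l/ha with 0.2% wetting agent. Percent damage was judged visually at 3 weeks.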

[3] = test system: SETVI; assay: Post-emergence herbicidal action against SETVI; assay type: in vivo, Setaria viridis
How it was run: as §1

[4] = test system: VERPE; assay: Post-emergence herbicidal action against VERPE; assay type: in vivo, Veronica persica; details: 20 g/ha
Procedure: (§3) Seeds of monocotyledonous and dicotyledonous weed and crop plants are laid out in sandy loam soil in wood-fiber pots, covered with soil and cultivated in a greenhouse under good growth conditions. 2 to 3 weeks after sowing, the test plants are treated at the one-leaf stage. The compounds of the invention, formulated in the form of wettable powders (WP) or as emulsion concentrates (EC), are then sprayed onto the green parts of the plants in the form of an aqueous suspension or emulsion at a water application rate equivalent to 600 to 800 l/ha, with addition of 0.2% wetting agent. After the test plants have been left to stand in the greenhouse under optimal growth conditions for about 3 weeks, the action of the preparations is assessed visually in comparison to untreated controls (herbicidal action in percent (%): 100% activity=the plants have died, 0% activity=like control plants). […] The tables below illustrate, in an illustrative manner, the post-emergence herbicidal action of the compounds of the invention, the herbicidal activity being stated in percent.

[5] = test system: ECHCG; assay: Pre-emergence herbicidal action against ECHCG; assay type: in vivo, Echinochloa crus-galli
How it was run: as §2

[6] = test system: MATIN; assay: Pre-emergence herbicidal action against MATIN; assay type: in vivo, Matricaria inodora
How it was run: as §2

[7] = test system: AMARE; assay: Post-emergence herbicidal action against AMARE; assay type: in vivo, Amaranthus retroflexus; details: 20 g/ha, visual assessment about 3 weeks after treatment, 100% = plants have died, 0% = like control plants
How it was run: as §1

[8] = test system: ABUTH; assay: Post-emergence herbicidal action against ABUTH; assay type: in vivo, Abutilon theophrasti; details: visual assessment about 3 weeks after treatment vs untreated controls
How it was run: as §1

[9] = test system: PHBPU; assay: Post-emergence herbicidal action against PHBPU; assay type: in vivo, Pharbitis purpurea
How it was run: as §1

[10] = test system: AMARE; assay: Pre-emergence herbicidal action against AMARE; assay type: in vivo, Amaranthus retroflexus
How it was run: as §2

[11] = test system: ALOMY; assay: Pre-emergence herbicidal action against ALOMY; assay type: in vivo, Alopecurus myosuroides; details: pre-emergence
How it was run: as §2

[12] = test system: ALOMY; assay: Post-emergence herbicidal action against ALOMY; assay type: in vivo, Alopecurus myosuroides; details: visual assessment about 3 weeks after treatment vs untreated controls
Procedure: as §3

[13] = test system: VIOTR; assay: Post-emergence herbicidal action against VIOTR; assay type: in vivo, Viola tricolor
How it was run: as §1

[14] = test system: VIOTR; assay: Pre-emergence herbicidal action against VIOTR; assay type: in vivo, Viola tricolor
How it was run: as §2

[15] = test system: ABUTH; assay: Pre-emergence herbicidal action against ABUTH; assay type: in vivo, Abutilon theophrasti; details: for Pre-emergence action against ABUTH (herbicidal activity): 80 g/ha, scored visually after 3 weeks vs untreated controls (100% = plants have died, 0% = like control plants)
How it was run: as §2

[16] = test system: SETVI; assay: Pre-emergence herbicidal action against SETVI; assay type: in vivo, Setaria viridis; details: dosage 80 g/ha
How it was run: as §2

[17] = test system: MATIN; assay: Post-emergence herbicidal action against MATIN; assay type: in vivo, Matricaria inodora; details: dosage 20 g/ha
How it was run: as §1

[18] = test system: VERPE; assay: Pre-emergence herbicidal action against VERPE; assay type: in vivo, Veronica persica; details: dosage 80 g/ha
How it was run: as §2

[19] = test system: DIGSA; assay: Pre-emergence herbicidal action against DIGSA; assay type: in vivo, Digitaria sanguinalis
How it was run: as §2

[20] = test system: DIGSA; assay: Post-emergence herbicidal action against DIGSA; assay type: in vivo, Digitaria sanguinalis
How it was run: as §1

[21] = 80 g/ha, scored visually after 3 weeks vs untreated controls (100% = plants have died, 0% = like control plants)
[22] = 20 g/ha, scored visually after 3 weeks vs untreated controls, 100% = plants have died, 0% = like control plants

| SMILES | Post-emergence action against ECHCG in % [1] | Pre-emergence action against VIOTR in % ([14]; dosage 80 g/ha) | Post-emergence action against VERPE in % [4] | Pre-emergence action against MATIN in % ([6]; dosage 80 g/ha) | Post-emergence action at 20 g/ha against AMARE in % [7] | Post-emergence action against ABUTH in % ([8]; dosage 20 g/ha) | Post-emergence action against PHBPU in % ([9]; dosage 20 g/ha) | Pre-emergence action against AMARE in % [10, 21] | Pre-emergence action against ALOMY (herbicidal activity) [11, 21] | Pre-emergence action against ABUTH (herbicidal activity) [15] | Post-emergence action against ALOMY in % ([12]; dosage 20 g/ha) | Post-emergence action against VIOTR in % ([13]; 20 g/ha) | Pre-emergence action against AVEFA in % [2] | Post-emergence action against SETVI in % ([3]; dosage 20 g/ha) | Pre-emergence action against ECHCG in % ([5]; 80 g/ha) | Pre-emergence action against MATIN in % ([6]; dosage 20 g/ha) | Pre-emergence action against SETVI in % [16] | Pre-emergence action against AMARE in % [10, 22] | Post-emergence action against MATIN in % [17] | also measured |
| --- | --- | --- | --- | --- | --- | --- | --- | --- | --- | --- | --- | --- | --- | --- | --- | --- | --- | --- | --- | --- |
| CNC(=O)c1c(Br)ccc(C(=O)Nc2nnnn2C)c1Br [Example 1-342] |  |  |  |  |  |  |  |  |  |  |  |  |  |  |  |  |  |  |  | pest or weed control at 20 g/ha ([1]; Echinochloa crus-galli, 504 h): 80%; pest or weed control at 80 g/ha ([2]; Avena fatua, 504 h): 100%; pest or weed control at 5 g/ha ([3]; Setaria viridis, 504 h, dosage 5 g/ha): 90%; pest or weed control at 20 g/ha ([3]; Setaria viridis, 504 h, dosage 20 g/ha): 90%; pest or weed control at 20 g/ha ([4]; Veronica persica, 504 h): 80%; pest or weed control at 80 g/ha ([5]; Echinochloa crus-galli, 504 h, 80 g/ha): 100%; pest or weed control at 20 g/ha ([6]; Tripleurospermum inodorum, 504 h, dosage 20 g/ha): 80%; pest or weed control at 80 g/ha ([6]; Tripleurospermum inodorum, 504 h, dosage 80 g/ha): 100%; pest or weed control at 20 g/ha ([7]; Amaranthus retroflexus, 504 h): 100%; pest or weed control at 5 g/ha ([8]; Abutilon theophrasti, 504 h, dosage 5 g/ha): 90%; pest or weed control at 20 g/ha ([8]; Abutilon theophrasti, 504 h, dosage 20 g/ha): 90%; pest or weed control at 5 g/ha ([9]; Ipomoea purpurea, 504 h, dosage 5 g/ha): 80%; pest or weed control at 20 g/ha ([9]; Ipomoea purpurea, 504 h, dosage 20 g/ha): 90%; pest or weed control at 20 g/ha ([10]; Amaranthus retroflexus, 504 h, 20 g/ha, scored visually after 3 weeks vs untreated controls, 100% = plants have died, 0% = like control plants): 100%; pest or weed control at 80 g/ha ([10]; Amaranthus retroflexus, 504 h, 80 g/ha, scored visually after 3 weeks vs untreated controls, 100% = plants have died, 0% = like control plants): 100%; pest or weed control at 80 g/ha ([11]; Alopecurus myosuroides, 504 h, 80 g/ha, scored visually after 3 weeks vs untreated controls (100% = plants have died, 0% = like control plants)): 100%; pest or weed control at 20 g/ha ([11]; Alopecurus myosuroides, 504 h, 20 g/ha, scored visually after 3 weeks, 100% = plants have died, 0% = like control plants): 90%; pest or weed control at 5 g/ha ([12]; Alopecurus myosuroides, 504 h, dosage 5 g/ha): 90%; pest or weed control at 20 g/ha ([12]; Alopecurus myosuroides, 504 h, dosage 20 g/ha): 100%; pest or weed control at 20 g/ha ([13]; Viola tricolor, 504 h, 20 g/ha): 80% |
| COCCNC(=O)c1c(C(F)F)ccc(C(=O)Nc2nnnn2C)c1C [Example 1-347] | 90% | 80% | 90% | 90% | 100% | 90% | 90% | 100% | 80% | 100% | 80% | 100% |  |  |  |  |  |  |  | Post-emergence action against ABUTH in % ([8]; dosage 5 g/ha): 80%; Post-emergence action against PHBPU in % ([9]; dosage 5 g/ha): 90%; Post-emergence action against VIOTR in % ([13]; 5 g/ha): 80% |
| CCn1nnnc1NC(=O)c1ccc(OC)c(C(=O)NC)c1Cl [Example 2-352] | 90% | 80% | 90% | 90% | 100% | 80% | 80% | 100% | 90% | 100% | 90% | 90% | 80% | 80% | 80% | 90% | 100% | 100% | 80% | Post-emergence action against SETVI in % ([3]; dosage 5 g/ha): 80%; Pre-emergence action against VIOTR in % ([14]; dosage 20 g/ha): 80%; Post-emergence action against ALOMY in % ([12]; dosage 5 g/ha): 80% |
| Cc1nnc(NC(=O)c2ccc(C(F)(F)F)c(C(=O)NC(C)C3CC3)c2Cl)o1 (stereo not drawn) [Example 6-254] | 90% | 90% | 80% | 100% | 100% | 80% | 80% | 100% | 90% | 100% |  |  | 90% | 80% | 100% | 80% | 80% | 100% | 80% | Pre-emergence action against VERPE in % [18]: 100%; Pre-emergence action against ECHCG in % ([5]; 20 g/ha): 90%; Pre-emergence action against DIGSA in % ([19]; dosage 20 g/ha): 90%; Pre-emergence action against DIGSA in % ([19]; dosage 80 g/ha): 100%; Post-emergence action against DIGSA in % ([20]; 5 g/ha): 80%; Post-emergence action against DIGSA ([20]; 20 g/ha): 90%; Pre-emergence action against ABUTH (herbicidal activity in percent) ([15]; dosage 20 g/ha, scored visually after 3 weeks vs untreated controls, 100% = plants have died, 0% = like control plants): 100% |
